The values that follow come from ChEMBL document CHEMBL3259812, “Structural modifications of 4-aryl-4-oxo-2-aminylbutanamides and their acetyl- and butyrylcholinesterase inhibitory activity. Investigation of AChE-ligand interactions by docking calculations and molecular dynamics simulations” (Eur J Med Chem, 2014).

In series [1] the target is T1, Cholinesterase (Equus caballus, UniProt P81908).
Description: (§1) Inhibition of horse serum BChE using butyrylthiocholine iodide as substrate preincubated for 35 mins followed by enzyme addition measured after 3 mins by Ellman's method
In series [2] the target is Cholinesterase (Equus caballus) (UniProt P81908). Nature of the series: Inhibition of horse serum BChE using butyrylthiocholine iodide as substrate assessed as residual activity at 15 uM preincubated for 35 mins followed by enzyme addition measured after 3 mins by Ellman's method relative to control. (Ellman's reagent forms a yellow product with free thiols.)
Cholinesterase (Equus caballus), sequence (P81908 whole entry): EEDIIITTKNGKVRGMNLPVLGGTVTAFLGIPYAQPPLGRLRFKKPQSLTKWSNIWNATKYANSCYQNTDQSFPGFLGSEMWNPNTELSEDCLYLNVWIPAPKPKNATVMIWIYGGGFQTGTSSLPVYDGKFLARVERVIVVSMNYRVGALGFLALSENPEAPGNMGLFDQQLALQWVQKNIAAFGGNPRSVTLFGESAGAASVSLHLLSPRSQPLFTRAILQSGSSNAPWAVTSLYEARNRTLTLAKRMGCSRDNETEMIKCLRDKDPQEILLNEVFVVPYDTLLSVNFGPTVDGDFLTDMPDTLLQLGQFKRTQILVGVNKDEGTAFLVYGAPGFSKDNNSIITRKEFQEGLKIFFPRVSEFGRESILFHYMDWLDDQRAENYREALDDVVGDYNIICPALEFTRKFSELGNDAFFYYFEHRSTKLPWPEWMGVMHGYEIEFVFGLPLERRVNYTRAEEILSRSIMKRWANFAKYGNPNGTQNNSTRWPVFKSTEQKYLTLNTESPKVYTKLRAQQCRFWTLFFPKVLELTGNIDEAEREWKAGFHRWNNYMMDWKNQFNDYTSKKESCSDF
The target is the same in series [3]. Kind of series: Inhibition of horse serum BChE using butyrylthiocholine iodide as substrate assessed as residual activity at 40 uM preincubated for 35 mins followed by enzyme addition measured after 3 mins by Ellman's method relative to control.
The target is the same in series [4]. Nature of the series: Inhibition of horse serum BChE using butyrylthiocholine iodide as substrate assessed as residual activity at 30 uM preincubated for 35 mins followed by enzyme addition measured after 3 mins by Ellman's method relative to control.
Series [5] in a line: Stability of the compound. The format is physicochemical.
Series [6] concerns Electrophorus electricus. Kind of series: Inhibition of electric eel acetylcholinesterase type VI-S using acetylthiocholine iodide as substrate assessed as residual activity at 20 uM preincubated for 35 mins followed by enzyme addition measured after 3 mins by Ellman's method relative to control.
The nature of series [7]: Mixed type inhibition of electric eel acetylcholinesterase type VI-S using acetylthiocholine iodide as substrate assessed as enzyme-inhibitor complex by Lineweaver-Burk plot analysis. Further details: species or system Electrophorus electricus.
In series [8] the target is T1, Cholinesterase. This is another data set of the same source.
Description: as §1
Series [9] has as its system Electrophorus electricus. Nature of the series: Reversible inhibition of electric eel acetylcholinesterase type VI-S using acetylthiocholine iodide as substrate by Lineweaver-Burk plot analysis.
Series [10] concerns Electrophorus electricus. Kind of series: Inhibition of electric eel acetylcholinesterase type VI-S using acetylthiocholine iodide as substrate assessed as residual activity at […] preincubated for 35 mins followed by enzyme addition measured after 3 mins by Ellman's method relative to control.
Series [11] has as its system Electrophorus electricus. Nature of the series: Inhibition of electric eel acetylcholinesterase type VI-S using acetylthiocholine iodide as substrate assessed as residual activity at 8.5 uM preincubated for 35 mins followed by enzyme addition measured after 3 mins by Ellman's method relative to control.
Series [12] has as its target Cholinesterase (Equus caballus) (UniProt P81908). Nature of the series: Inhibition of horse serum BChE using butyrylthiocholine iodide as substrate assessed as residual activity at 20 uM preincubated for 35 mins followed by enzyme addition measured after 3 mins by Ellman's method relative to control.
For series [13], the system named is Electrophorus electricus. Nature of the series: Inhibition of electric eel acetylcholinesterase type VI-S using acetylthiocholine iodide as substrate assessed as residual activity at 15 uM preincubated for 35 mins followed by enzyme addition measured after 3 mins by Ellman's method relative to control.
Series [14] deals with Electrophorus electricus. Nature of the series: Inhibition of electric eel acetylcholinesterase type VI-S using acetylthiocholine iodide as substrate assessed as residual activity at 25 uM preincubated for 35 mins followed by enzyme addition measured after 3 mins by Ellman's method relative to control.
The target in series [15] is Cholinesterase (Equus caballus) (UniProt P81908). Nature of the series: Inhibition of horse serum BChE using butyrylthiocholine iodide as substrate assessed as residual activity at 10 uM preincubated for 35 mins followed by enzyme addition measured after 3 mins by Ellman's method relative to control.

Active and inactive are the calls of the source. No cut-off for these calls is given here.

T1 sequence (P81908 whole entry): as above

For orientation: IC50 means the point on the concentration scale where inhibition reaches its midpoint. Read a low IC50 as greater potency. `CC(C)c1ccc(C(=O)CC(C(=O)NC2CCCCC2)N2CCOCC2)c(C(C)C)c1` (centres undefined) displayed a 50% inhibitory concentration (IC50) against Cholinesterase [1] above 20 µM. In the case of `CC(C)c1ccc(C(=O)CC(C(=O)Nc2ccccc2)N2CCCCC2)c(C(C)C)c1` (centres undefined), the Activity in series [2] stood at 60.1%. As to `CC(C)c1ccc(C(=O)CC(C(=O)Nc2ccccc2)N2CCOCC2)cc1` (centres undefined), the Activity in series [3] came to 72.8%. For `CC(C)c1ccc(C(=O)CC(C(=O)Nc2ccccc2)n2ccnc2)cc1` (centres undefined), in series [4], the Activity worked out at 90%. For the compound `O=C(CC(C(=O)Nc1ccccc1)N1CCCCC1)c1cccc2c1CCCC2` (centres undefined), in [2], the Activity came out at 78.5%. Turning to `O=C(CC(C(=O)Nc1ccccc1)N1CCOCC1)c1cccc2c1CCCC2` (centres undefined), the Activity in series [3] was 87%. Take `O=C(CC(C(=O)Nc1ccccc1)n1ccnc1)c1cccc2c1CCCC2` (centres undefined): the Activity in [3] worked out at 83%. With `COc1cc(NC(=O)C(CC(=O)c2ccc(C(C)C)cc2)N2CCCCC2)cc(OC)c1` (racemic), the Stability result in [5] was “Unstable”.

In the case of `COc1cc(NC(=O)C(CC(=O)c2ccc(C(C)C)cc2)n2ccnc2)cc(OC)c1` (racemic), the IC50 against Cholinesterase [1] was above 20 µM. The same measure, in the same setting: the figure for `COc1cc(NC(=O)C(CC(=O)c2ccc(C(C)C)cc2)N2CCOCC2)cc(OC)c1` (racemic) is above 20 µM. In the case of `COc1cc(NC(=O)C(CC(=O)c2ccc(C(C)C)cc2)N2CCN(C)CC2)cc(OC)c1` (racemic), in the series on Electrophorus electricus [6], the Activity worked out at 76.7%. Besides, the IC50 on Cholinesterase [1] was above 20 µM. For the compound `CC(C)c1ccc(NC(=O)C(CC(=O)c2ccc(C(C)C)cc2)N2CCCCC2)cc1` (racemic), the Stability result in series [5] was “Unstable”. For the compound `CC(C)c1ccc(NC(=O)C(CC(=O)c2ccc(C(C)C)cc2)n2ccnc2)cc1` (racemic), at Cholinesterase [1], the IC50 is above 20 µM. On to `CC(C)c1ccc(NC(=O)C(CC(=O)c2ccc(C(C)C)cc2)N2CCOCC2)cc1` (racemic), for which the IC50 at Cholinesterase [1] is above 20 µM. In turn, `COc1ccc(NC(=O)C(CC(=O)c2ccc(C(C)C)cc2C(C)C)N2CCCCC2)cc1OC` (racemic) showed an IC50 at Cholinesterase [1] above 7.5 µM. With `COc1ccc(NC(=O)C(CC(=O)c2ccc(C(C)C)cc2C(C)C)N2CCN(C)CC2)cc1OC` (racemic), on Cholinesterase [1], half-maximal inhibition (IC50) required 5.26 µM.

One may read the Ki as the equilibrium dissociation constant of an inhibitor or competing ligand from its target. `CC(C)c1ccc(NC(=O)C(CC(=O)c2ccc(C(C)C)cc2C(C)C)N2CCCCC2)cc1` (racemic): the Ki in series [7] came out at 0.52 µM. For the same compound, the IC50 result on Cholinesterase [8] was “ND(Insoluble)”. In addition, in the series on Electrophorus electricus [9], the inhibition entry is “Active”. As to `CC(C)c1ccc(NC(=O)C(CC(=O)c2ccc(C(C)C)cc2C(C)C)n2ccnc2)cc1` (racemic), at Cholinesterase [1], the IC50 was above 20 µM. Consider `CC(C)c1ccc(NC(=O)C(CC(=O)c2ccc(C(C)C)cc2C(C)C)N2CCN(C)CC2)cc1` (racemic), for which inhibition at Cholinesterase [1] was half-maximal at 0.74 µM (IC50). The Activity in the series with Electrophorus electricus [10] is 43.6%. Compound `CC(C)c1ccc(C(=O)CC(C(=O)NC2CCCCC2)N2CCN(C)CC2)c(C(C)C)c1` (racemic) had an IC50 against Cholinesterase [1] of 2.25 µM.

In turn, `O=C(CC(C(=O)NC1CCCCC1)N1CCCCC1)c1cccc2c1CCCC2` (racemic) registered an IC50 on Cholinesterase [1] above 20 µM. Regarding `O=C(CC(C(=O)NC1CCCCC1)n1ccnc1)c1cccc2c1CCCC2` (racemic), at Cholinesterase [1], the IC50 was above 20 µM. For the compound `O=C(CC(C(=O)NC1CCCCC1)N1CCOCC1)c1cccc2c1CCCC2` (racemic), the IC50 result at Cholinesterase [8] is recorded as “ND(Insoluble)”. Still for that read-out and setting: the entry for `CC(C)c1ccc(NC(=O)C(CC(=O)c2cccc3c2CCCC3)N2CCCCC2)cc1` (racemic) is “ND(Insoluble)”. At Cholinesterase [1], `CC(C)c1ccc(NC(=O)C(CC(=O)c2cccc3c2CCCC3)n2ccnc2)cc1` (racemic) yielded an IC50 above 20 µM. Same read-out and setting: for `CC(C)c1ccc(NC(=O)C(CC(=O)c2cccc3c2CCCC3)N2CCOCC2)cc1` (racemic) the value was above 15 µM. As to `CC(C)c1ccc(NC(=O)C(CC(=O)c2cccc3c2CCCC3)N2CCN(C)CC2)cc1` (racemic), the Activity with Electrophorus electricus [11] was determined as 86.5%. The compound also registered an IC50 against Cholinesterase [1] of 10.8 µM.

`CC(C)c1ccc(C(=O)CC(C(=O)Nc2ccccc2)N2CCC(Cc3ccccc3)CC2)cc1` (racemic): the IC50 against Cholinesterase [1] is above 20 µM. Compound `COc1cc(NC(=O)C(CC(=O)c2ccc(C(C)C)cc2)N2CCN(CCN(C)C)CC2)cc(OC)c1` (racemic) returned an IC50 on Cholinesterase [1] above 20 µM. With `CC(C)c1ccc(C(=O)CC(C(=O)NC2CCCCC2)N2CCCCC2)c(C(C)C)c1` (racemic), the Activity in [12] was found to be 72.7%. Regarding `CC(C)c1ccc(C(=O)CC(C(=O)NC2CCCCC2)N2CCCCC2)cc1` (racemic), the figures for the Activity (in series [12]; in the series with Electrophorus electricus [13]) were 65% and 63.1%, respectively. Regarding `CC(C)c1ccc(C(=O)CC(C(=O)NC2CCCCC2)N2CCN(C)CC2)cc1` (racemic), the results for the Activity (in series [12]; with Electrophorus electricus [14]) were 66.2% and 86.2%, respectively. In the case of `CC(C)c1ccc(C(=O)CC(C(=O)NC2CCCCC2)N2CCOCC2)cc1` (racemic), the Activity came out at 46.8% in series [15] and 85.1% in the series on Electrophorus electricus [14]. Regarding `CC(C)c1ccc(C(=O)CC(C(=O)NC2CCCCC2)n2ccnc2)c(C(C)C)c1` (racemic), the Activity in [12] amounted to 65.8%. Consider `CC(C)c1ccc(C(=O)CC(C(=O)NC2CCCCC2)n2ccnc2)cc1` (racemic), for which the Activity in series [12] worked out at 76%; in the series with Electrophorus electricus [13], 65.3%. As to `CC(C)c1ccc(NC(=O)C(CC(=O)c2ccc(C(C)C)cc2)N2CCN(C)CC2)cc1` (racemic), the Activity in [2] came out at 72.4%.

As to `CC(C)c1ccc(NC(=O)C(CC(=O)c2ccc(C(C)C)cc2C(C)C)N2CCOCC2)cc1` (racemic), the Activity came out at 73.6% in [15] and 44.4% in the series on Electrophorus electricus [10].

In the case of `CC(C)c1ccc2c(c1C(=O)CC(C(=O)NC1CCCCC1)N1CCCCC1)CCCC2` (racemic), the Activity in series [12] was 61.5%. Regarding `CC(C)c1ccc2c(c1C(=O)CC(C(=O)NC1CCCCC1)N1CCN(C)CC1)CCCC2` (racemic), the Activity in series [12] came to 39.1%. `CC(C)c1ccc2c(c1C(=O)CC(C(=O)NC1CCCCC1)N1CCOCC1)CCCC2` (racemic): the Activity in series [12] was 75.2%.

`CC(C)c1ccc2c(c1C(=O)CC(C(=O)NC1CCCCC1)n1ccnc1)CCCC2` (racemic): in series [12], the Activity turned out to be 52.2%. Turning to `CN1CCN(C(CC(=O)c2cccc3c2CCCC3)C(=O)NC2CCCCC2)CC1` (racemic), the Activity in [12] amounted to 56.7%.

Consider `COc1ccc(NC(=O)C(CC(=O)c2ccc(C(C)C)cc2C(C)C)N2CCOCC2)cc1OC` (racemic), for which, in series [15], the Activity came out at 62.4%. Regarding `COc1ccc(NC(=O)C(CC(=O)c2ccc(C(C)C)cc2C(C)C)n2ccnc2)cc1OC` (racemic), the Activity in [12] amounted to 78.4%.
